{"source": "patent US20260373103A1", "about": "“COMPOSITIONS AND METHODS FOR PREVENTING CARDIOMYOPATHY” (OHIO STATE INNOVATION FOUNDATION, priority 2022, published 2026)", "key": {"[1]": {"test_system": "HeLa-Parkin and HeLa-Parkin cells expressing USP30", "assay": "Oxygen consumption, Seahorse assay", "format": "cell-based", "experimental": "Measurement of intact cellular respiration was performed using the Seahorse XFe96 Analyzer as previously described. In brief, 2×10^4 cells per well were seeded in the Seahorse XF Cell Culture Microplate (Agilent) using high-glucose DMEM at 37 °C, with a humidified atmosphere of 5% CO2, overnight. And a sensor cartridge was hydrated in Seahorse XF Calibrant in a non-CO2 incubator overnight at 37 °C. The high-glucose DMEM in Cell Culture Microplate was changed to warmed assay medium and placed into a 37 °C non-CO2 incubator for 45 minutes prior to the assay. Oligomycin (1.5 μM/well), FCCP (1 μM/well) and Antimycin A (0.5 μM/well) were supplemented at 18 minutes, 36 minutes and 54 minutes, respectively. The results were analyzed using the Seahorse Wave software."}, "[2]": {"assay": "Plasma pharmacokinetics after i.p. injection", "format": "in vivo", "settings": "mice, 25 mg/kg i.p.", "experimental": "(§1) ST-539 was dissolved into 1% DMSO in Sesame oil and injected intraperitoneally (i.p.) at doses of 25 mg/kg. Serial blood samples were collected at 0.083, 0.25, 0.5, 1, 2, 4 and 8 hours post dosing. Mice were euthanized at 24 hours post dosing. A terminal blood sample was collected by cardiac puncture followed by harvesting the brain and heart. Transcardial perfusion was performed prior to brain collection. The blood samples were placed in microtubes pretreated with K2EDTA as an anticoagulant and kept on ice until centrifugation. The tissue samples were rinsed using cold distilled water to remove blood, blotted dry, weighed and stored on dry ice until LC/MS/MS analysis. Plasma was transferred into polypropylene tubes or 96-well plates, quick frozen on dry ice, and stored at −70±10 °C until LC/MS/MS analysis."}, "[3]": {"assay": "Tissue concentrations 24 h post-dose", "format": "in vivo, Male C57BL/6 Mice", "experimental": "as §1"}, "[4]": {"settings": "24 Hours Post-dose, 25 mg/kg i.p., mean"}}}
{"smiles": "CC(C)(C)NS(=O)(=O)c1cccc2c(NC(=O)C(Cc3ccccc3)NC(=O)c3ccccc3)cccc12", "note": "(centres unmarked) [ST-539]", "values": [{"measurement": "basal and maximal respiration", "setting": "[1]; 24 h ST-539, high dose", "result": "slight increase"}, {"measurement": "basal respiration and spare respiratory capacity", "setting": "[1]; ST-539, both cell lines", "result": "Slightly increased"}, {"measurement": "area under the plasma drug concentration-time curve (AUC)", "setting": "[2]", "result": "~ 4.2 μg·h/ml"}, {"measurement": "half-life (T1/2)", "setting": "[2]", "result": "about 3.85 hr"}, {"measurement": "maximum plasma concentration (Cmax)", "setting": "[2]", "result": "about 1.4 μg/ml"}, {"measurement": "time to reach peak plasma concentration (Tmax)", "setting": "[2]", "result": 1.33, "unit": "h"}, {"measurement": "AUC0-inf", "setting": "[2]; plasma", "result": 4240, "unit": "ng·h/mL"}, {"measurement": "AUC0-last", "setting": "[2]; plasma", "result": 4162, "unit": "ng·h/mL"}, {"measurement": "Cmax", "setting": "[2]; plasma", "result": 1427, "unit": "ng/mL"}, {"measurement": "MRT0-inf", "setting": "[2]; plasma", "result": 4.27, "unit": "h"}, {"measurement": "MRT0-last", "setting": "[2]; plasma", "result": 3.86, "unit": "h"}, {"measurement": "T1/2", "setting": "[2]; plasma", "result": 3.85, "unit": "h"}, {"measurement": "Tlast", "setting": "[2]; plasma", "result": 24.0, "unit": "h"}, {"measurement": "Tmax", "setting": "[2]; plasma", "result": 1.33, "unit": "h"}, {"measurement": "Brain concentration", "setting": "[3]; [4]", "result": 17.4, "unit": "ng/g"}, {"measurement": "Heart concentration", "setting": "[3]; [4]", "result": 37.0, "unit": "ng/g"}, {"measurement": "ST-539 detected in mouse brain homogenate", "setting": "[3]; 24 h post-dose", "result": "modest concentrations"}]}
